From patent US20100210537A1, “USE OF A DEFENSIN PEPTIDE AS A THERAPEUTIC AGENT” (priority 2007, published 2010) come the findings set out here.

Where no end group is shown, it is not given here.

Assay [1] deals with hepatitis B virus (HBV) ayw strain. The experiment in a line: HBV assay in HepG2-2.2.15 cells (TaqMan PCR of secreted HBV DNA). The class given is cell-based. Conditions: 10 micrograms per ml, six days. From the text: HepG2-2.2.15 is a stable cell line containing the hepatitis B virus (HBV) ayw strain genome (ATCC Cat. No. CRL-11997). Antiviral compounds blocking any late step of viral replication such as transcription, translation, pregenome encapsidation, reverse transcription, particle assembly and release can be identified and characterized using this cell line. In this assay, an active compound will reduce the production of secreted HBV from cells, measured by utilizing real time quantitative PCR (TaqMan) assay to directly and accurately measure HBV DNA copies.
HepG2-2.2.15 cells were plated in 96-well microtiter plates. After 16-24 hours the confluent monolayer of HepG2-2.2.15 cells was washed and the medium was replaced with complete medium containing test peptides-10 micrograms per ml-in duplicate. […] Six days following the initial administration of the peptides, the cell culture supernatants was collected, treated with pronase and DNAse and then used in a real-time quantitative TaqMan PCR assay. The PCR-amplified HBV DNA was detected in real-time by monitoring increases in fluorescence signals that result from the exonucleolytic degradation of a quenched fluorescence probe molecule that hybridizes to the mplified HBV DNA. […] Antiviral activity was calculated from the reduction in HBV DNA levels (% virus control). […]

Another assay concerns Interleukin-2 (IL-2). The experiment in a line: Th1/Th2 cytokine profiling assay: IL-2. It counts as cell-based, Balb/c mice. Conditions: 10 micrograms per ml; Ovalbumin-restimulated spleen cells, 72 hours.
A further assay deals with Interleukin-4 (IL-4). The experiment in a line: Th1/Th2 cytokine profiling assay: IL-4. The class given is cell-based, Balb/c mice. The following applies: 10 micrograms per ml; Ovalbumin-restimulated spleen cells, 72 hours.
The subject of a further assay is Interleukin-5 (IL-5). The experiment in a line: Th1/Th2 cytokine profiling assay: IL-5. Conditions: 10 micrograms per ml; Ovalbumin-restimulated spleen cells, 72 hours. The class given is cell-based, Balb/c mice.
Another assay concerns Interferon-γ (IFN-γ). The experiment in a line: Th1/Th2 cytokine profiling assay: IFN-gamma. The class given is cell-based, Balb/c mice. Conditions: 10 micrograms per ml; Ovalbumin-restimulated spleen cells, 72 hours.
The test system of assay [2] is Tumor Necrosis Factor-α (TNF-α). Briefly: Th1/Th2 cytokine profiling assay: TNF-alpha. The class given is cell-based, Balb/c mice. Conditions: 10 micrograms per ml; Ovalbumin-restimulated spleen cells, 72 hours.
Method: (§1) On day 50, spleens of the mice were harvested (3 weeks after last boost with Ovalbumin). Cells were cultured (2×10^5/well in triplicate) and incubated with culture medium or test peptides-10 micrograms per ml-for 30 min. Thereafter, additional Ovalbumin was added to the cells at 10 micrograms/ml for in vitro restimulation of the cells. 72 hours later, cell supernatants were harvested and assayed using the Becton Dickinson Mouse Th1/Th2 Cytokine CBA Kit.
In assay [3] the test system is Primary Human endothelial cells (HUVEC). The experiment in a line: Endothelial cell migration assay. It counts as cell-based. The following applies: 10 micrograms per ml, 22 hours. Here is the method:
Thereafter, designated concentration of testing peptides-10 micrograms per ml-was added in duplicate wells.

The subject of a further assay is HUVEC. Briefly: Endothelial tube formation assay. The class given is cell-based, human. The following applies: 10 micrograms per ml, 20 hours. An excerpt:
Positive control was vehicle only.

A further assay deals with HCMV strain AD169. Briefly: HCMV plaque formation assay in MRC-5 cells. The following applies: for inhibition of HCMV plaque formation as compared to the virus control experiment: 10 micrograms per ml, 7-10 days.
The subject of another assay is HIV-1IIIB. The experiment in a line: HIV-1 antiviral assay in CEM-SS cells (MTS readout). It counts as cell-based.

Method for Interferon-γ (IFN-γ): as §1
Method for Interleukin-2 (IL-2): as §1
Method for Interleukin-4 (IL-4): as §1
Method for Interleukin-5 (IL-5): as §1

Regarding “Cys-Tyr-Cys-Arg-Ile-Pro-Ala-Cys-Ile-Ala-Gly-Glu-Arg-Arg-Tyr-Gly-Thr-Cys-Ile-Tyr-Gln-Gly-Arg-Leu-Trp-Ala-Phe-Cys-Cys-OH (CYCRIPACIAGERRYGTCIYQGRLWAFCC-OH; cysteine pairing not given here) [Peptide 1]”, the “inhibition of HBV replication as compared to the virus control infection” value in [1] is given as “did not inhibit”. Further, in the assay with Interleukin-2 (IL-2), the “decrease of the production of IL-2 in murine spleen cells” value is on record as 100%. Further, in the assay on Interleukin-4 (IL-4), the “decrease of the production of IL-4 in murine spleen cells” value came to 49.4%. The “decrease of the production of IL-5 in murine spleen cells” value with Interleukin-5 (IL-5) stood at 38.4%. The “change of the production of IFN-gamma in murine spleen cells” value with Interferon-γ (IFN-γ) is on record as “did not significantly change”. Also, in assay [2], the “change of the production of TNF-alpha in murine spleen cells” value is reported as “did not significantly change”. In [3], the “inhibition of the migration of human endothelial cells” value stood at 17%. The “inhibition of the tube formation of human endothelial cells” value with HUVEC came to 21%. Moreover, the “inhibition of HCMV plaque formation as compared to the virus control experiment” value with HCMV strain AD169 is “did not inhibit”.

For the compound `CC(C)(C)NC(=O)[C@@H]1CN(Cc2cccnc2)CCN1C[C@@H](O)C[C@@H](Cc1ccccc1)C(=O)N[C@H]1c2ccccc2C[C@H]1O` [indinavir], the “antiviral activity of positive control compounds” value in the assay with HIV-1IIIB is given as “expected levels of antiviral activity”.

As to `Cc1cn([C@H]2C[C@H](N=[N+]=[N-])[C@@H](CO)O2)c(=O)[nH]c1=O` [AZT], in the assay with HIV-1IIIB, the “antiviral activity of positive control compounds” value is “expected levels of antiviral activity”.

Consider `Nc1nc(O)c2ncn(COC(CO)CO)c2n1` [Ganciclovir, reference compound], for which, in the assay on HCMV strain AD169 (positive control, HCMV AD169), the “antiviral activity of positive control compound” value is “expected levels of antiviral activity”.

For “Ser-Glu-Ile-Trp-Arg-Asp-Ile-Asp-Phe-OH (SEIWRDIDF-OH) [Peptide 2]”, the “inhibition of HBV replication as compared to the virus control infection” value in [1] is reported as 21.6%. In addition, in the assay on Interleukin-2 (IL-2), the “decrease of the production of IL-2 in murine spleen cells” value was “did not significantly change”. In addition, in the assay on Interleukin-4 (IL-4), the “decrease of the production of IL-4 in murine spleen cells” value is recorded as “did not significantly change”. The “decrease of the production of IL-5 in murine spleen cells” value with Interleukin-5 (IL-5) is “did not significantly change”. In addition, in the assay on Interferon-γ (IFN-γ), the “change of the production of IFN-gamma in murine spleen cells” value is reported as “did not significantly change”. For the same compound, the “change of the production of TNF-alpha in murine spleen cells” value in [2] is listed as “did not significantly change”. In addition, the “inhibition of the migration of human endothelial cells” value in assay [3] is 18%. Moreover, in the assay on HUVEC, the “inhibition of the tube formation of human endothelial cells” value is 19%. The “inhibition of HCMV plaque formation as compared to the virus control experiment” value in the assay with HCMV strain AD169 was “did not inhibit”.
